Reference: patent US6025365A, “Chelerythrine and radiation combined tumor therapy” (Arch Development Corp., priority 1997, dated 2000)

Columns and labels:
WEHI-231 OE cells [1] = test: Viability by PI staining and FACS, WEHI-231 OE; assay type: cell-based, murine; details: Mus musculus, WEHI231, 24 hours
Method: (§1) FIG. 11B. WEHI-231 JM and OE cells are equally sensitive to inhibition of sphingosine kinase and exogenous ceramide. Cells were treated with increasing concentrations of C2-ceramide or DL-threo-dihydrosphingosine--apotent inhibitor of sphingosine kinase. Viability was assayed using PI staining and FACS analysis 24 hours after treatment.
(§2) For viability staining, 2.5-3.5×10^5 cells were treated with varying concentrations of C2-ceramide, irradiation, or both.
(§3) In order to address the question of whether the resistance of the OE subline was due, in part, to alterations in ceramide metabolites or targets, three studies were performed. […] Both cell lines were equally susceptible to the effects of sphingosine kinase inhibition and the resulting […] in ceramide. […] Thus the radioresistance can be attributed to the lack of sphingomyelinase activation and the subsequent decreased ceramide production following irradiation.

WEHI-231 JM cells [2] = test: Viability by PI staining and FACS, WEHI-231 JM; assay type: cell-based, murine; details: Mus musculus, WEHI231, 24 hours
Method: as §1, §2, §3

WEHI-231 JM cells [3] = test: Intracellular ceramide accumulation in WEHI-231 JM cells; assay type: cell-based, murine; details: within 24 hours
Method: Quantitation of ceramide by diacylglycerol kinase was similar to that described by Dressler and Kolesnick (1990). After irradiation, lipids were extracted and resuspended by bath sonication in 20 μl of 7.5% n-octyl-β-D-glucopyranoside, 5 mM cardiolipin, 1 mM DETAPAC. Seventy μl of a reaction mix was added to give a final concentration of 0.05M imidazole/HCl pH 6.6, 0.05M NaCl, 12.5 mM MgCl2, 1 mM EGTA and DAG kinase at a concentration of 0.7 U/ml. The reaction was started by the addition of 10 μl of [γ-^32 P]ATP (1.0 μCi/tube) in 5 mM ATP and incubated at room temperature for 30 min and stopped by the extraction of lipids with 450 μl of CHCl3 :CH3 OH (1:2) and 20 μl of 1% HClO4. The monophase was mixed and after 10 min., 150 μl CHCl3 and 150 μl of 1% HClO4 were added and the tubes vortexed and centrifuged at 5000 g for 5 min. The lower organic phase was washed twice with 1% HClO4 and then dried in a Speed Vac Apparatus. The phosphorylation products, ceramide-1-phosphate and phosphatidic acid (fom DAG) were resolved on a 10 cm×10 cm LH P-K TLC plate (Whatman). Data was calculated as pmoles of ceramide/10^6 cells by scintillation counting. In Example 6, data (mean +/- SD) represent at least 4 independent studies in which *p<002 compared with unirradiated controls. […]

WEHI-231 OE cells [4] = test: Resistance of selected WEHI-231 OE variants to n-oleoylethanolamine; assay type: cell-based, murine; details: 75 μM n-oleoylethanolamine
Method: WEHI-231 JM cells (1×10^7) were treated with two successive treatments of 100 μM and 125 μM N-oleoylethanolamine (Matreya), a potent inhibitor of ceramidase (Coroneos et al., 1995; Ambrosini et al., 1994). Cells were grown in media containing n-oleoylethanolamine for 96 hours. Serial dilutions isolated individual resistant cells and were expanded after each selection. Every two weeks cells were re-selected with 125 μM n-oleoethanolamine.

HL-60 cells = details: literature reports; cited from earlier work
WEHI-231 cells [5] = test: Apoptosis / cell death of WEHI-231 (propidium iodide FACS, gel electrophoresis, DAPI); assay type: cell-based, murine; details: chelerythrine 10 μM or calphostin C 250 nM
Method: Cells undergoing apoptosis also shrink in size.
Cells, 5×10^5, were centrifuged at 1000 rpm and resuspended in approximately 100 μl cell culture media. The cell suspension was then mixed with 100 μl of DAPI (4',6-iamidino-2-phenylindole, Sigma D9542, 1 μg/ml in PBT (PBS+1% Triton X-100)). One drop of this mixture was placed on a microslide with a coverslip. The cells were viewed by fluorescence microscopy using an Olympus BX-40 microscope with a 100 Watt Mercury lamp, a 16 or 40 X Fluorite objective, N.A. 0.75, (Leco #1-UB527) and a UV filter cube (ex 330-385 nm, em 420 nm, wide band pass, Leco #U-M536). Images were photographed using an Optronics cooled low-light video camera (Leco #DEI-470TB) to which was attached a 2X coupler (Leco #HR200-CMT). The image was saved to a digital file at 72 dpi.
DNA degradation was assessed as previously described (Gottschalk et al., 1993; 1994). Briefly, following treatment in 100 mm plates or 24 well plates, cells were collected and lysed in 0.5 ml lysis buffer (0.6% SDS+10 mM EDTA, pH 7.0). NaCl was added to a final concentration of 1M, mixed by inversion, incubated for 12 hours at 4° C. and then spun at 14,000 g for 30 minutes. Samples were treated with chloroform (1:1) and precipitated in ethanol prior to electrophoresis in a 3% agarose gel and visualized with ethidium bromide.

protein kinase C (PKC) = details: cited from earlier work
WEHI-231 cells [6] = test: Sphingomyelin mass by lipid extraction / TLC; assay type: cell-based, murine; details: 250 nM calphostin C, 2 hours
Method: (§4) FIG. 7A. Inhibition of PKC causes an increase in ceramide production through the activation of a neutral sphingomyelinase and decreases in sphingomyelin levels. Ceramide production was quantitated using the DAG kinase assay for WEHI-231 JM cells and total lipid extraction was used to assay sphingomyelin mass. Following addition of 10 μM chelerythrine, cells were lysed at the appropriate time points as described herein. Each data point represents the average percentage change in ceramide or sphingomyelin generation from baseline derived from at least 8 independent studies for all time points with the exception of those marked with * (n=4). Standard deviations depicted by error bars.
(§5) FIG. 7B. […] Ceramide production and sphingomyelin mass was quantitated identical to that for chelerythrine. Cells were lysed 2 hours following the addition of 250 nM calphostin C. […]
Cells were prelabeled with [^3 H] palmitate (10 μCi/ml) for 24 hours to isotopic equilibrium in 15 ml glass tubes to minimize changes in cellular ceramide and sphingomyelin due to handling and changing of media (Borchardt et al., 1994). […] Autoradiographs were quantitated using an Epson 1200 c 30 bit scanner and NIH Image software (public domain program developed at the NIH and available from the Internet via FTP from zippy.nimh.nih.gov). […]

WEHI-231 cells [7] = details: Chmura et al., 1996a; cited from earlier work
WEHI-231 cells [8] = test: Ceramide production by DAG kinase assay; assay type: cell-based, murine; details: 250 nM calphostin C, 2 hours
Method: as §4, §5
Quantitation of ceramide by diacylglycerol kinase was similar to that described by Dressler and Kolesnick (1990). […] Data was calculated as pmoles of ceramide/10^6 cells by scintillation counting. […]
In order to test whether PKC inhibition alters ceramide production, the DAG kinase assay was used to quantify intracellular ceramide following chelerythrine and calphostin C treatment (Dressler and Kolesnick, 1990; Preiss et al., 1986). […]

cyclic-AMP kinase (PKA) = details: cited from earlier work

Q: For `CCCCCCCCCCCCCCC[C@H](O)[C@@H](N)CO` (relative stereo) [DL-threo-dihydrosphingosine], which IC50 (WEHI-231 OE cells [1]) is on record?
A: The IC50 was 3000 nM.

Q: And the IC50 (WEHI-231 JM cells [2])?
A: Its IC50 is 3000 nM.

Q: Which results are given for `CCCCCCCC/C=C\CCCCCCCC(=O)NCCO` [N-oleoylethanolamine]?
A: intracellular accumulation of ceramide (WEHI-231 JM cells [3]): rose within 24 hours in a dose dependent manner; resistance to apoptosis vs parental line (WEHI-231 OE cells [4]): 3 fold

Q: Which “apoptosis in HL-60 cells” value (HL-60 cells) does the source give for `CN[C@@H]1C[C@H]2O[C@@](C)([C@@H]1OC)n1c3ccccc3c3c4c(c5c6ccccc6n2c5c31)C(=O)NC4` [staurosporine] here?
A: Its value is “both to antagonize (Cotter et al., 1992) and to initiate apoptosis in HL-60 cells”.

Q: With Calphostin C as the compound, how does the cell death (WEHI-231 cells [5]; 24 hours) read?
A: The cell death was “greater than 90%”.

Q: And the “DNA laddering and nuclear condensation” value (WEHI-231 cells [5])?
A: The value was “DNA laddering and nuclear condensation”.

Q: What about the “specificity at blocking PKC vs staurosporin and H7” value (protein kinase C (PKC)) of the same compound?
A: Its value is “at least 30 fold”.

Q: And the “sphingomyelin levels” value (WEHI-231 cells [6])?
A: The value was “decreased sphingomyelin levels”.

Q: What about the “interaction with exogenous ceramide analogs in inducing apoptosis” value (WEHI-231 cells [7]) of the same compound?
A: Its value is “act in synergy with exogenous ceramide analogs to induce apoptosis”.

Q: What about the “ceramide production” value (WEHI-231 cells [8]) of the same compound?
A: The value was “induced cerarnide production”.

Q: What about the “inhibition of PKA” value (cyclic-AMP kinase (PKA); at concentrations used for the inventors' studies) of the same compound?
A: The value was “do not appear to inhibit other kinases”.

Q: And the IC50 (cyclic-AMP kinase (PKA))?
A: The IC50 was 50000 nM.
